Here are results for 5 compounds from PMC2009935, “Biological activities of dihydrodiols derived from two polycyclic hydrocarbons in rodent test systems” (British Journal of Cancer, 1979).

The test system of data set [1] is mouse skin.
The next data set deals with Wistar rats. Put plainly: Induction of sarcomas after s.c. injection into Wistar rats.
Data set [2] relates to mouse skin. Briefly: Short-term test on mouse skin: suppression of sebaceous glands.
The subject of data set [3] is mouse skin. The following applies: total doses 75-150 ug in 3 applications.
Where [4] appears, read: single dose 25 ug, TPA promotion.
[5] abbreviates: female Wistar rats, single s.c. injection 0.9 mg in olive oil, up to 9 months.

On to `Cc1c2ccccc2cc2c3c(ccc12)C=C[C@@H](O)[C@@H]3O` (relative stereo) [1,2-dihydrodiol, trans-1,2-Dihydro-1,2-dihydroxy-7-methylbenz[a]anthracene], for which the “tumour development in the initiated mice (in words)” value with mouse skin [1] (setting [4]) was “only really increased after the amount of TPA applied had been doubled”.

`c1ccc2c(c1)cc1ccc3cccc4ccc2c1c34` [BP, benzo[a]pyrene, reference compound] yielded a No. with sarcomas in the data set on Wistar rats (Table III, female Wistar rats, single s.c. injection 0.9 mg in 0.5 ml olive oil, up to 9 months, 30 animals) of 24. The “sarcomas induced in the group of rats” value in the data set with Wistar rats (setting [5]) is given as 24/30. The “Sebaceous glands, No. present” value in the data set with mouse skin [2] (total dose 150.0 ug in 3 applications in acetone, 8 days after first treatment, 12 microscopic fields) worked out at 0.0.

In the case of `O[C@H]1C=Cc2c(cc3ccc4cccc5ccc2c3c45)[C@@H]1O` (relative stereo) [trans-7,8-Dihydro-7,8-dihydroxy-BP, trans-7,8-Dihydro-7,8-dihydroxybenzo[a]pyrene], the “sarcomas induced in the group of rats” value in the data set with Wistar rats (setting [5]) was “one”. The “activity as s.c. carcinogen in rats (in words)” value in the data set with Wistar rats (single s.c. injection 0.9 mg in olive oil) was “very much less active than benzo[a]pyrene as an s.c. carcinogen in rats”. In addition, the “suppression of sebaceous glands in mouse skin (in words)” value with mouse skin [2] (total doses 75-150 ug in 3 applications) is “some activity”. Also, the “induction of hyperplasia in mouse skin (in words)” value in the data set on mouse skin [3] is given as “some activity as a hyperplastic agent”.

Take `Cc1c2c(cc3c1ccc1ccccc13)C=C[C@@H](O)[C@@H]2O` (relative stereo) [8,9-dihydrodiol, trans-8,9-dihydro-8,9-dihydroxy-7-methylbenz[a]anthracene]: the “tumour development in the initiated mice (in words)” value in the data set with mouse skin [1] (setting [4]) is reported as “only really increased after the amount of TPA applied had been doubled”.

Consider `Cc1c2ccccc2cc2c1ccc1ccccc12` [7-methylbenz[a]anthracene, reference compound], for which, in the data set on mouse skin [1] (female CDI mice, single dose 25 ug in acetone on dorsal skin, TPA thrice weekly for 52 weeks), the “tumour-initiating activity on mouse skin (in words)” value is “more active than the related 1,2-, 5,6- and 8,9-dihydrodiols”. Moreover, the “skin-tumour incidence plateau, first or only, time after initiation” value in the data set with mouse skin [1] (setting [4]) was greater than 40 weeks.
